Results on one substance are retold here after patent publication US20090240046A1, “CARBOXYLATED GLUCOSAMINE COMPOUNDS FOR INHIBITING THE ACTIVATION AND EXPRESSION OF MATRIX METALLOPROTEINASE-9 IN HUMAN FIBROSARCOMA CELLS AND MATRIX METALLOPROTEINASE-9 INHIBITORS CONTAINING THE SAME” (priority 2006, published 2009).

Holding throughout (assay type): cell-based, human
The subject of data set [1] is MMP-9. The experiment in a line: Gelatin zymography of MMP-9 gelatinolytic activity in conditioned medium of PMA-stimulated HT1080 cells. The settings on record: 500 μg/mL CGlc, HT1080 cells stimulated with PMA 10 ng/mL. The protocol: MMP-9 activity in HT1080 cells was assayed by gelatin zymography as described previously. For this, approximately 2×10^5 cells/mL HT1080 cells in serum free DMEM medium were seeded in 24-well plates and pre-treated with different concentrations of CGlc for 1 h. MMP-9 expression was stimulated by treatment of PMA (10 ng/mL) and cells were cultured for 48 h. Cell conditioned medium was subjected to substrate gel electrophoresis. Similar amount of protein containing conditioned media were applied without reduction to a 10% (w/v) polyacrylamide gel impregnated with 1 mg/mL gelatin. After electrophoresis, gel was washed in 50 mM Tris-HCl (pH 7.5) containing 2.5% Triton X-100 at room temperature and incubated overnight at 37° C. in zymography developing buffer containing 10 mM CaCI2, 50 mM Tris-HCl, and 150 mM NaCl. The gel was then stained with a […]. In this assay clear zones against the blue background indicate the presence of gelatinolytic activity.
The image of the gel was recorded using Fujifilm Image Reader LAS-3000 software in Science Image System, LAS 3000 (Fujifilm Life Science, Tokyo, Japan). The gelatinolytic activities were quantified using Multi Gauge V3.0 software.
To analyze the inhibition of MMP-9 mediated gelatinolytic activity in conditioned medium stimulated with PMA, we utilized human fibrosarcoma cell line, HT1080. […]

Another data set has as its system HT1080 cells. In words: MTT cell viability (cytotoxicity) assay. The settings on record: even at 1 mg/mL, 24 h, in the presence and absence of FBS. The protocol:
Equal number of HT1080 cells (4000 cells per well) cultured in 96-well plates with serum and serum free media were treated with various concentrations of CGlc for 24 h. Cell viability was then evaluated with the 3-(4,5-dimethyl[…])-2,5-diphenyltetrazolium bromide (MTT) spectrophotometrically (GENios® microplate reader, Tecan Austria GmbH, Austria) which measures conversion of tetrazolium salt in to blue formazan by viable cells.

Data set [2] concerns MMP-9. In words: Fluorescence conjugated gelatin digestion assay on conditioned medium of PMA-stimulated HT1080 cells. The procedure: HT1080 cells grown in 24-well plates were treated with different concentrations of CGlc and conditioned media were collected by centrifugation at 13 000×g following PMA (10 ng/mL) treatment. Enzyme activities of conditioned media in 50 mmol/l Tris-HCl buffer (pH 7.5), 0.15 mol/l NaCl, 10 mmol/l CaCl2, 0.02% NaN3 (TNC buffer) containing 0.05% Brij 35 were determined using fluorescence conjugated gelatin peptide (Collagen Technology Corporation, Tokyo, Japan) as the substrate.
Fluoropeptides were incubated with conditioned media at 37° C. for 20 h, and the reaction was terminated by addition of 3% acetic acid. Fluorescence intensity was measured at 495 nm (excitation) and 520 nm (emission) with a GENios® fluorescence microplate reader (Tecan Austria GmbH, Austria).
The MMP-9 inhibitory effect of CGlC on MMP-9 activity stimulated by PMA in HT1080 cells was further confirmed using more sensitive fluorescence conjugated gelatin digestion assay which use fluorescence conjugated gelatin peptides as the substrate for MMP-9. The amount of active gelatinases (MMP-9/-2) present in CGIc treated stimulated conditioned medium obtained from incubation of HT1080 cells was assesssed from the resulting fluorescence activity. […] Therefore it can be presumed that difference in fluorescence intensities were mainly due to activity of MMP-9. […]

The subject of a further data set is MMP-9 promoter. In words: MMP-9 promoter luciferase reporter assay in transfected HT1080 cells. As to conditions: PMA-stimulated transfected HT1080 cells. The protocol:
(§1) HT1080 cells cultured in 10 cm culture dishes were transiently transfected with MMP-9 promoter containing pGL3 luciferase reporter vector (Promega, Madison, Wis.) or AP-1 binding site containing luciferase reporter plasmid (Colontech, Palo Alto, […]) by Lipofectamine™ 2000™ reagent (Invitrogen). Beta-galactosidase expression vector co-transfected with the reporter vector to serve as an internal control of transfection efficiency. Transfected cells sub-cultured in 24-well plates were treated with different concentrations of CGlc. Following stimulation with PMA cells were cultured for 24 h. Cells were washed once with cold PBS and lysed with 200 μl/well lysis buffer (25 mM Tri-HCl, pH 8.0, containing 2 mM DDT and 1% Triton-X 100). Aliquots of cell lysate and luciferase substrate (Promega) were mixed in equal amounts in a 96-well plate and luminescence intensity was measured with a luminescence microplate reader (Tecan Austria GmbH, Austria). Beta-galactosidase activity was measured with ONPG buffer. The level of reporter gene expression was determined as a ratio, compared with cells stimulated by PMA (10 ng/mL) alone and represented as relative luciferase activity.
(§2) Transfection efficiency was determined by X-Gal staining method. Briefly, transfected cells were fixed with 0.5% glutaraldehyde and stained with X-Gal solution containing 20 mM K3Fe(CN)6, K4Fe(CN)6 and 1 mM MgCl2. […]

Another data set deals with AP-1. The experiment in a line: AP-1 binding site luciferase reporter assay in transfected HT1080 cells. As to conditions: 500 μg/mL CGlc, PMA-stimulated transfected HT1080 cells. The protocol: as §1, §2

As to Carboxylated glucosamine [CGlc], in the data set on MMP-9 [1], the “inhibition of MMP-9 lead gelatinolytic activity” value was “approximately 60%”. For the same substance, the “toxicity on HT1080 cells (MTT viability)” value with HT1080 cells is on record as “did not show any toxicity”. Moreover, the “reduction of fluorescence intensity” value with MMP-9 [2] (100 μg/mL CGlc) was “about 50%”. Also, the “decrease of relative fluorescence activity” value in the data set on MMP-9 [2] (500 μg/mL CGlc) is listed as “up to 66%”. For the same substance, the “inhibition of MMP-9-luciferase reporter gene activity” value is “Approximately 50%” in the data set on MMP-9 promoter (100 μg/mL CGlc) and “approximately 3 fold” with MMP-9 promoter (500 μg/mL CGlc). Also, in the data set on AP-1, the “suppression of AP-1 reporter activity” value was 2-3 fold.
